Reference: PMC7882986, “Simultaneous blocking of the pan‐RAF and S100B pathways as a synergistic therapeutic strategy against malignant melanoma” (Journal of Cellular and Molecular Medicine, 2020)

Test system: p53 transcription activity
Assay: p53 luciferase reporter assay in A375 cells
Format: cell-based, human
Conditions: 0.5 μM alone, 12 h
Method: Transient transfection: A375 cells were seeded in a culture dish overnight before transfection. p53-luciferase plasmid, and TurboFect reagent were mixed together in Dulbecco's modified eagle medium (DMEM) without FBS and the resulting solution was incubated for 20 min at 37 °C. The mixture was then added to the A375 cells in the wells. The cells were incubated for 12 h at 37 °C in a CO2 incubator before use.
Briefly, A375 cells were seed at a density of 6 × 10^5 cell in a culture dish overnight. The cells were co-transfected with p53-luciferase plasmid in serum-free DMEM medium using TurboFect Transfection Reagent. Then, the transfected cells were seeded in a 24-well plate and treated with an indicated concentration of 1 in 1% FBS medium for 6h. The transfected cells were lysed by the addition of 160 μL Passive Lysis Buffer (PLB). 50 μL of the cell lysates were transferred to a 96-well white plate followed by adding 50 μL of luciferase reporter reagent (LAR). The transcriptional activity was determined by measuring the activity of firefly luciferase in SpectraMax M5 microplate reader (Molecular Devices).

For `CCCS(=O)(=O)Nc1ccc(F)c(C(=O)c2c[nH]c3ncc(-c4ccc(Cl)cc4)cc23)c1F` [vemurafenib, reference compound], the “p53 transcription activity, single agent” value was “negligible effect”.
